{"source": "patent US20070004620A1", "about": "“Fp receptor antagonists or pgf2 alpha antagonists for treating pathological conditions of the uterus” (priority 2002, published 2007)", "key": {"TP": {"target": "T1, TP (Homo sapiens, UniProt P21731)", "T1 sequence (P21731 1-343)": "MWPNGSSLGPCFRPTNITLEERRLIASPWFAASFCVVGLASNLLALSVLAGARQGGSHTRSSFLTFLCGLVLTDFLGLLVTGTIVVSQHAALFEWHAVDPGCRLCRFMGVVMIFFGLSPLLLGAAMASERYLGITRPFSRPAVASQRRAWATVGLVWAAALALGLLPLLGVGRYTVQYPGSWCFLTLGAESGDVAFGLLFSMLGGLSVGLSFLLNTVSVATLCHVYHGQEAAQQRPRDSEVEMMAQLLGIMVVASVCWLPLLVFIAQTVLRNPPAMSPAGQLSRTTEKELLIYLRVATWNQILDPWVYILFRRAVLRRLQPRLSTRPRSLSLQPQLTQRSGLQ", "conditions": "10 μM; cited from earlier work"}, "DP": {"target": "T2, DP (Homo sapiens, UniProt Q13258)", "T2 sequence (Q13258 1-359)": "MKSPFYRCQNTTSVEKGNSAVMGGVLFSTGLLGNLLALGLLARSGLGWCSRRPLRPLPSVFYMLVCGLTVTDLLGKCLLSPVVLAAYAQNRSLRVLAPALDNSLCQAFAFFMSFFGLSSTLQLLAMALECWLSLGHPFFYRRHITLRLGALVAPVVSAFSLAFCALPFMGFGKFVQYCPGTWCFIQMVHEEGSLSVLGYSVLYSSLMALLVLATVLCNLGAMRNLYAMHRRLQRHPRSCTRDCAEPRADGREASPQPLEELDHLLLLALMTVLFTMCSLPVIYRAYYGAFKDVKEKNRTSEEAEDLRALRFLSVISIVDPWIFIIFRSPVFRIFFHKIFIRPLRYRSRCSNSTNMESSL", "conditions": "10 μM; cited from earlier work"}, "EP2": {"target": "EP2 (Homo sapiens, UniProt P43116)", "sequence (P43116 whole entry)": "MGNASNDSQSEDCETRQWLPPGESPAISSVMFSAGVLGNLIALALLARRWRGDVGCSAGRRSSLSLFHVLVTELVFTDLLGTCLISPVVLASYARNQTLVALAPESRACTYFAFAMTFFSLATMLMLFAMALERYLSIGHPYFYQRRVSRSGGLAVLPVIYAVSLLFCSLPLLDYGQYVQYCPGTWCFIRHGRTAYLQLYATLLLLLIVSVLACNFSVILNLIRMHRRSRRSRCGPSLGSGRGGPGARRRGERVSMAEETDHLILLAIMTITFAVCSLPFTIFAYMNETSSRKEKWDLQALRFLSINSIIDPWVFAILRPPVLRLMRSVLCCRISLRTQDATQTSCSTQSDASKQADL", "conditions": "10 μM; cited from earlier work"}, "EP4": {"target": "EP4 (Homo sapiens, UniProt P35408)", "sequence (P35408 whole entry)": "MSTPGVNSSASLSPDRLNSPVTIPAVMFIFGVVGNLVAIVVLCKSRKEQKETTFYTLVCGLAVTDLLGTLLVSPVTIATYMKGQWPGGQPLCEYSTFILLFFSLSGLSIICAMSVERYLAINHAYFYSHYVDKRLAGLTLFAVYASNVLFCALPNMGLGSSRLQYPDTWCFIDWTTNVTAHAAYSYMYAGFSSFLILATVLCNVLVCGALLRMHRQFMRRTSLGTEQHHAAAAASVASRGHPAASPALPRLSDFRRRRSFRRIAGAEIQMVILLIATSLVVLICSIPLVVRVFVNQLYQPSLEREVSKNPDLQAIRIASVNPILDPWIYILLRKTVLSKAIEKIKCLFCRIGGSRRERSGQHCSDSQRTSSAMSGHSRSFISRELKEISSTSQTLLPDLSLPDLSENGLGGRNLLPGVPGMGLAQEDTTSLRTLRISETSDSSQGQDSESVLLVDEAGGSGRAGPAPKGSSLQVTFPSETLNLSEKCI", "conditions": "10 μM; cited from earlier work"}, "PGF2α receptor": {"tested_on": "PGF2α receptor", "conditions": "cited from earlier work"}, "Ishikawa cells [1]": {"tested_on": "Ishikawa cells", "assay": "Proliferation assay (BrdU incorporation ELISA) in Ishikawa cells", "format": "cell-based, human", "conditions": "U73122 2μM, no PGF2α", "description": "Proliferation of Ishikawa cells was determined using a BrdU incorporation ELISA (Roche Diagnostics GmbH, Mannheim, Germany). Briefly, Ishikawa cells were seeded at 5×10^3 cells per well in a 96-well plate and allowed to adhere overnight. Cells were next starved for 24 hr with indomethacin 1.5 μg/ml before 24 h PGF2α treatment (1 nM-1 μM) in serum-free medium containing indomethacin. Inhibitors were added to cells for 60 min before PGF2α with the control well receiving the same concentration of vehicle. Following 24 h treatment, cells were labelled with BrdU for 4 h, then fixed and assayed for BrdU incorporation using standard immunohistochemical techniques. Results were plotted as percentages of untreated cells."}, "human endometrium": {"tested_on": "human endometrium", "assay": "Total inositol phosphate (InsP) assay in human endometrium tissue", "format": "cell-based", "description": "(§1) PGF2α stimulation of total InsP production was as described (21). Briefly, tissue samples or Ishikawa cells were incubated with inositol free DMEM containing 1% dialyzed heat-inactivated FCS and 0.5 μCi/well myo-[^3H]inositol (Amersham Pharmacia Biotech) for 48 hours. Medium was removed, and cells washed with 1 ml buffer (140 mM NaCl, 20 mM HEPES, 4 mM KCl, 8 mM glucose, 1 mM MgCl2, 1 mM CaCl2, 1 mg/ml bovine serum albumin) containing 10 mM LiCl. Cells were then incubated for 1 hour at 37° C. in 1 ml buffer with or without inhibitors. Following incubation agonist was added at the required concentration and cells incubated for 1 hour. Reactions were terminated by the removal of agonist and the addition of 500 μl ice cold 10 mM formic acid, which was incubated for 30 minutes at 4° C. Total [^3H] inositol phosphates was separated from the formic acid cell extracts on AG 1-X8 anion exchange resin (Bio-Rad) and eluted with a 1 M ammonium formate/0.1 M formic acid solution. The associated radioactivity was determined by liquid scintillation counting and plotted relative to protein concentrations determined using the modified Lowry method."}, "Ishikawa cells [2]": {"tested_on": "Ishikawa cells", "assay": "Total inositol phosphate (InsP) assay in Ishikawa cells", "format": "cell-based, human", "conditions": "PGF2α 100 nM", "description": "as §1"}, "Ishikawa cells [3]": {"tested_on": "Ishikawa cells", "assay": "ERK phosphorylation in Ishikawa cells", "format": "cell-based, human", "conditions": "100 nM, treatment for 10 min", "description": "ERK phosphorylation in Ishikawa cells. PGF2α 100 nM was incubated for 10 and 30 min. U73122 2 μM was pre-incubated for 60 min before treatment with PGF2α."}, "HCT-8": {"tested_on": "HCT-8", "conditions": "HCT-8 human colon adenocarcinoma cell line; cited from earlier work"}, "HT-29": {"tested_on": "HT-29", "conditions": "HT-29 human colon adenocarcinoma cell line; cited from earlier work"}}, "note": "Entries after “also recorded” stand apart in the source; their conditions may differ.", "data": [{"molecule": "O=C(O)CCC/C=C\\C[C@@H]1[C@@H](/C=C/[C@H](O)C2Cc3ccccc3C2)[C@@H](F)C[C@@H]1O", "note": "[AL-8810, (5Z, 13E)-(9S,11S,15R)-9,15-dihydroxy-11-fluoro-15-(2-indanyl)-16,17,18,19,20-pentanor-5,13-prostadienoic acid]", "values": [{"measurement": "inhibition of functional responses of TP", "setting": "TP", "result": "not to significantly inhibit"}, {"measurement": "inhibition of functional responses of DP", "setting": "DP", "result": "not to significantly inhibit"}, {"measurement": "inhibition of functional responses of EP2", "setting": "EP2", "result": "not to significantly inhibit"}, {"measurement": "inhibition of functional responses of EP4", "setting": "EP4", "result": "not to significantly inhibit"}, {"measurement": "FP receptor antagonist potency", "setting": "PGF2α receptor", "result": "micromolar"}, {"measurement": "agonist activity at the PGF2α (FP) receptor", "setting": "PGF2α receptor", "result": "weak partial agonist"}, {"measurement": "antagonist activity at the PGF2α (FP) receptor", "setting": "PGF2α receptor", "result": "highly selective antagonist"}]}, {"molecule": "Cc1ccc(S(=O)(=O)NC(=O)NN2CCCCCC2)cc1", "note": "[tolazamide]", "values": [{"measurement": "antagonist activity at the PGF2α (FP) receptor", "setting": "PGF2α receptor", "result": "very weak antagonists"}]}, {"molecule": "COc1ccc2c(c1)CC[C@@H]1[C@@H]2CC[C@]2(C)[C@@H](NCCCCCCN3C(=O)C=CC3=O)CC[C@@H]12", "note": "[U73122]", "values": [{"measurement": "basal proliferation after pre-incubation with inhibitor", "setting": "Ishikawa cells [1]", "result": "93.9±1.9", "unit": "%"}]}, {"molecule": "CCCCNC(=O)NS(=O)(=O)c1ccc(C)cc1", "note": "[tolbutamide]", "values": [{"measurement": "antagonist activity at the PGF2α (FP) receptor", "setting": "PGF2α receptor", "result": "very weak antagonists"}]}, {"molecule": "CCCCC(F)[C@H](O)/C=C/[C@H]1CC[C@H](O)[C@@H]1C/C=C\\CCCC(=O)O", "note": "(stereo partly drawn) [AL-3138, 11-deoxy-16-fluoro PGF2α]", "values": [{"measurement": "agonist activity at the PGF2α (FP) receptor", "setting": "PGF2α receptor", "result": "weak partial agonist; also recorded: partial agonist of low efficacy"}, {"measurement": "antagonist activity at the PGF2α (FP) receptor", "setting": "PGF2α receptor", "result": "highly selective antagonist"}]}, {"molecule": "prostaglandin F2α [PGF2α]", "values": [{"measurement": "concentration at which maximal InsP mobilisation was observed", "setting": "human endometrium", "result": 100, "unit": "nM"}, {"measurement": "total InsP, maximum", "setting": "Ishikawa cells [2]", "result": 29, "unit": "cpm/mg protein"}, {"measurement": "fold increase in phosphorylated ERK intensity compared to native ERK", "setting": "Ishikawa cells [3]", "result": "6.6±0.7", "unit": "fold"}, {"measurement": "proliferation by PGF2α", "setting": "HCT-8", "result": "lack of proliferation"}, {"measurement": "proliferation by PGF2α", "setting": "HT-29", "result": "lack of proliferation"}]}]}
